These are literature values, as cited in patent US20050123607A1, “Pharmaceutical formulation of valaciclovir” (priority 2003, published 2005).

Each structure is given as a SMILES string.

For series [1] the following is noted: oral administration.
For series [2] the following is noted: especially in its salt form.

With `CC(C)[C@H](N)C(=O)OCCOCn1cnc2c(=O)[nH]c(N)nc21` [valaciclovir], the “absorption from the gastrointestinal tract / bioavailability (in words)” value in series [1] was “much improved bioavailability”. In addition, the “solubility (in words)” value in series [2] is reported as “very soluble”.
